According to patent US20060069132A1, “Azolecarboxamide herbicides” (priority 2004, published 2006):

Assays:
[1] = test system: small flower umbrella sedge; assay: Test B flooded paddy test; assay type: in vivo, Cyperus difformis; conditions: 1000 g ai/ha, scale 0 to 100 (0 no effect, 100 complete control)
In short: (§1)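 Visual control ratings, 0–100 versus untreated controls, taken after 13 to 15 days in the greenhouse. Blackgrass received a postemergence spray at the 1- to 4-leaf stage (2–18 cm); ducksalad, umbrella sedge and barnyardgrass were flooded-paddy treated at 2 leaves.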

Surinam grass = assay: Test B pre-/postemergence herbicide test; assay type: in vivo, Urochloa decumbens; conditions: for Surinam Grass plant response rating: postemergence
In short: (§2)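 Response was scored visually 13 to 15 days after treatment against untreated greenhouse controls, 0 meaning no effect and 100 complete control. Formulations (solvent mixture plus surfactant) went onto soil after planting, onto foliage of 1- to 4-leaf plants, and onto 2-leaf plants in a flooded paddy set including rice and barnyardgrass.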

wheat = assay: Test B postemergence herbicide test; assay type: in vivo, Triticum aestivum; design: key to Wheat plant response rating: 0 = no effect, 100 = complete control; conditions: for Wheat plant response rating: postemergence
In short: (§3)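 Formulated test chemicals went onto postemergence plants measuring 2 to 18 cm, at one to four leaves. For the paddy assay, species had reached two leaves. Scoring took place 13–15 days later by eye, relative to untreated plants, using 0 for no effect up to 100 for full control.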

large crabgrass = assay: Test B pre-/postemergence herbicide test; assay type: in vivo, Digitaria sanguinalis
In short: as §2

lambsquarters = assay: Test B pre-/postemergence herbicide test; assay type: in vivo, Chenopodium album; conditions: for Lambsquarters plant response rating: postemergence
In short: as §2

pigweed = assay: Test B pre-/postemergence herbicide test; assay type: in vivo, Amaranthus retroflexus; conditions: for Pigweed plant response rating: postemergence
In short: as §2

corn = assay: Test B pre-/postemergence herbicide test; assay type: in vivo, Zea mays
In short: as §2

cocklebur = assay: Test B pre-/postemergence herbicide test; assay type: in vivo, Xanthium strumarium; conditions: for Cocklebur plant response rating: postemergence
In short: as §2

blackgrass = assay: Test B postemergence herbicide test; assay type: in vivo, Alopecurus myosuroides; conditions: scale 0 (no effect) to 100 (complete control); for Blackgrass plant response rating: postemergence, visual rating
In short: as §1

barnyardgrass [2] = assay: Test B flooded paddy test; assay type: in vivo, Echinochloa crus-galli; conditions: 1000 g ai/ha, scale 0 to 100 (0 no effect, 100 complete control)
In short: as §1

barnyardgrass [3] = assay: Test B pre-/postemergence herbicide test; assay type: in vivo, Echinochloa crus-galli
In short: as §2

wild oat = assay: Test B postemergence herbicide test; assay type: in vivo, Avena fatua; conditions: for Oat, Wild plant response rating: postemergence
In short: as §3

rice [4] = assay: Test B pre-/postemergence herbicide test; assay type: in vivo, Oryza sativa; conditions: preemergence
In short: as §2

rice [5] = assay: Test B flooded paddy test; assay type: in vivo, Oryza sativa; conditions: 1000 g ai/ha, scale 0 to 100 (0 no effect, 100 complete control)
In short: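 Postemergence plants were sprayed with formulated test chemicals at 2 to 18 cm height (1- to 4-leaf stage); paddy species were grown to the 2-leaf stage. After 13 to 15 days in a greenhouse, injury was rated visually against untreated controls on a 0–100 scale (0 = no effect, 100 = complete control).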

giant foxtail = assay: Test B pre-/postemergence herbicide test; assay type: in vivo, Setaria faberi
In short: as §2

velvetleaf = assay: Test B pre-/postemergence herbicide test; assay type: in vivo, Abutilon theophrasti; conditions: for Velvetleaf plant response rating: postemergence
In short: as §2

morningglory = assay: Test B pre-/postemergence herbicide test; assay type: in vivo, Ipomoea coccinea; conditions: for Morningglory plant response rating: postemergence
In short: as §2

ducksalad = assay: Test B flooded paddy test; assay type: in vivo, Heteranthera limosa; conditions: 1000 g ai/ha, scale 0 to 100 (0 no effect, 100 complete control)
In short: as §1

[6] = 125 g ai/ha, 0 = no effect, 100 = complete control, preemergence
[7] = 500 g ai/ha, visual rating, 0 = no effect, 100 = complete control, preemergence
[8] = 125 g ai/ha, visual rating, scale 0 (no effect) to 100 (complete control)
[9] = 500 g ai/ha, scale 0 to 100, 0 is no effect, 100 is complete control
[10] = postemergence, 125 g ai/ha, visual rating, scale 0 (no effect) to 100 (complete control)
[11] = postemergence, 500 g ai/ha, scale 0 to 100, 0 is no effect, 100 is complete control
[12] = Postemergence, 500 g ai/ha, visual rating after 13 to 15 days, scale 0 (no effect) to 100 (complete control)
[13] = preemergence, 125 g ai/ha, 0 to 100 scale, 0 is no effect, 100 is complete control
[14] = Preemergence, 500 g ai/ha, scale 0 to 100

Compound: C#CCNC(=O)c1cncc(NC(=O)c2cc(C(C)(C)C)nn2CC)c1 [Compound 264]
- Sedge, Umbrella plant response rating [1]: 50
- Surinam Grass plant response rating (0 to 100 scale) (Surinam grass; [6]): 0
- Plant response rating, Surinam Grass (Surinam grass; [7]): 10
- Surinam Grass plant response rating (Surinam grass; [8]): 0
- Surinam Grass plant response rating (Surinam grass; [9]): 0
- Wheat plant response rating (wheat; [8]): 0
- Wheat plant response rating (wheat; [9]): 10
- Crabgrass, Large plant response rating (0 to 100 scale) (large crabgrass; [6]): 10
- Plant response rating, Crabgrass, Large (large crabgrass; [7]): 50
- Crabgrass, Large plant response rating (large crabgrass; [10]): 0
- Crabgrass, Large plant response rating (large crabgrass; [11]): 0
- Lambsquarters plant response rating (0 to 100 scale) (lambsquarters; [6]): 0
- Plant response rating, Lambsquarters (lambsquarters; [7]): 100
- Lambsquarters plant response rating (lambsquarters; [8]): 0
- Lambsquarters plant response rating (lambsquarters; [9]): 0
- Pigweed plant response rating (0 to 100 scale) (pigweed; [6]): 0
- Plant response rating, Pigweed (pigweed; [7]): 100
- Pigweed plant response rating (pigweed; [8]): 0
- Pigweed plant response rating (pigweed; [9]): 0
- Corn plant response rating (0 to 100 scale) (corn; [6]): 0
- Plant response rating, Corn (corn; [7]): 0
- Corn plant response rating (corn; [10]): 0
- Corn plant response rating (corn; [11]): 0
- Cocklebur plant response rating (0 to 100 scale) (cocklebur; [6]): 0
- Plant response rating, Cocklebur (cocklebur; [7]): 0
- Cocklebur plant response rating (cocklebur; [8]): 0
- Cocklebur plant response rating (cocklebur; 500 g ai/ha, visual rating, scale 0 (no effect) to 100 (complete control)): 0
- Blackgrass plant response rating (blackgrass; 125 g ai/ha): 0
- Blackgrass plant response rating (blackgrass; 500 g ai/ha): 20
- Barnyardgrass plant response rating (barnyardgrass [2]): 0
- Barnyardgrass plant response rating (0 to 100 scale) (barnyardgrass [3]; [6]): 0
- Plant response rating, Barnyardgrass (barnyardgrass [3]; [7]): 10
- Barnyardgrass plant response rating (barnyardgrass [3]; [10]): 0
- Barnyardgrass plant response rating (barnyardgrass [3]; postemergence, 500 g ai/ha, visual rating, scale 0 (no effect) to 100 (complete control)): 0
- Oat, Wild plant response rating (wild oat; [8]): 0
- Oat, Wild plant response rating (wild oat; [9]): 20
- Rice plant response rating (0 to 100 scale) (rice [4]; 125 g ai/ha, 0 = no effect, 100 = complete control): 0
- Plant response rating, Rice (rice [4]; 500 g ai/ha, visual rating, 0 = no effect, 100 = complete control): 0
- Rice plant response rating (rice [5]): 0
- Foxtail, Giant plant response rating (0 to 100 scale) (giant foxtail; [6]): 0
- Plant response rating, Foxtail, Giant (giant foxtail; [7]): 10
- Foxtail, Giant plant response rating (giant foxtail; [10]): 0
- Foxtail, Giant plant response rating (giant foxtail; [11]): 0
- Velvetleaf plant response rating (0 to 100 scale) (velvetleaf; [6]): 0
- Plant response rating, Velvetleaf (velvetleaf; [7]): 10
- Velvetleaf plant response rating (velvetleaf; [8]): 0
- Velvetleaf plant response rating (velvetleaf; [9]): 0
- Morningglory plant response rating (0 to 100 scale) (morningglory; [6]): 0
- Plant response rating, Morningglory (morningglory; [7]): 0
- Morningglory plant response rating (morningglory; [8]): 0
- Morningglory plant response rating (morningglory; [9]): 0
- Ducksalad plant response rating (ducksalad): 90

Compound: CCN(CC)C(=O)c1cc(NC(=O)c2cc(C(C)(C)C)nn2CC)ccc1C [Compound 69]
- Sedge, Umbrella plant response rating ([1]; visual rating, 13 to 15 days): 0
- Plant response rating, Surinam Grass (Surinam grass; [12]): 0
- Surinam Grass plant response rating (Surinam grass; [8]): 0
- Plant response rating, Surinam Grass (Surinam grass; [13]): 0
- Plant response rating, Wheat (wheat; [12]): 0
- Wheat plant response rating (wheat; [8]): 0
- Plant response rating, Crabgrass, Large (large crabgrass; [12]): 0
- Crabgrass, Large plant response rating (large crabgrass; [14]): 0
- Crabgrass, Large plant response rating (large crabgrass; [10]): 0
- Plant response rating, Crabgrass, Large (large crabgrass; [13]): 0
- Plant response rating, Lambsquarters (lambsquarters; [12]): 10
- Lambsquarters plant response rating (lambsquarters; [8]): 0
- Plant response rating, Lambsquarters (lambsquarters; [13]): 0
- Plant response rating, Pigweed (pigweed; [12]): 20
- Pigweed plant response rating (pigweed; [8]): 10
- Plant response rating, Pigweed (pigweed; [13]): 0
- Plant response rating, Corn (corn; [12]): 0
- Corn plant response rating (corn; [14]): 0
- Corn plant response rating (corn; [10]): 0
- Plant response rating, Corn (corn; [13]): 0
- Plant response rating, Cocklebur (cocklebur; [12]): 0
- Cocklebur plant response rating (cocklebur; [8]): 0
- Plant response rating, Cocklebur (cocklebur; [13]): 0
- Plant response rating, Blackgrass (blackgrass; Postemergence, 500 g ai/ha, visual rating after 13 to 15 days): 30
- Blackgrass plant response rating (blackgrass; 125 g ai/ha): 10
- Barnyardgrass plant response rating (barnyardgrass [2]; visual rating, 13 to 15 days): 0
- Plant response rating, Barnyardgrass (barnyardgrass [3]; [12]): 0
- Barnyardgrass plant response rating (barnyardgrass [3]; [14]): 0
- Barnyardgrass plant response rating (barnyardgrass [3]; [10]): 0
- Plant response rating, Barnyardgrass (barnyardgrass [3]; [13]): 0
- Plant response rating, Oat, Wild (wild oat; [12]): 20
- Oat, Wild plant response rating (wild oat; [8]): 10
- Plant response rating, Rice (rice [4]; 125 g ai/ha, 0 to 100 scale, 0 is no effect, 100 is complete control): 0
- Rice plant response rating (rice [5]; visual rating, 13 to 15 days): 0
- Plant response rating, Foxtail, Giant (giant foxtail; [12]): 0
- Foxtail, Giant plant response rating (giant foxtail; [14]): 0
- Foxtail, Giant plant response rating (giant foxtail; [10]): 0
- Plant response rating, Foxtail, Giant (giant foxtail; [13]): 0
- Plant response rating, Velvetleaf (velvetleaf; [12]): 0
- Velvetleaf plant response rating (velvetleaf; [8]): 0
- Plant response rating, Velvetleaf (velvetleaf; [13]): 0
- Plant response rating, Morningglory (morningglory; [12]): 0
- Morningglory plant response rating (morningglory; [8]): 0
- Plant response rating, Morningglory (morningglory; [13]): 0
- Ducksalad plant response rating (ducksalad; visual rating, 13 to 15 days): 0
